Entries after “also recorded” stand apart in the source; their conditions may differ.
What was measured:
[1] = 1H NMR reverse titration (receptor into the sugar) and Job plot; assay type: binding; details: CDCl3, n-octyl-β-D-glucopyranoside
Method: (§1) The binding affinity of Compound 12 towards a set of octylglycosides (FIG. 15) was measured using ^1H NMR titrations in CDCl3 and UV titrations in chloroform and methanol.
A reverse titration format (receptor into the sugar) was employed for estimating binding by ^1H NMR titrations in order to avoid the complications caused due to micelles formation by octylglycosides at higher concentrations (Vacca et al., J. Am. Chem. Soc. 126:16456-16465 (2004), which is hereby incorporated by reference in its entirety). […] Job plot analysis (as modified for NMR) (Fokkens et al., Chem. Eur. J. 11:477-494 (2005), which is hereby incorporated by reference in its entirety) verified a 1:1 association between Compound 12 and n-octyl-β-D-glucopyranoside (FIG. 9B).

[2] = Fluorescence titration of n-octyl monosaccharides with receptor; assay type: binding; details: 298° K
Method: as §1
(§2) The same titration protocol employed in Example 7 was also employed in this Example (methanol at 298° K; duplicate titrations).
(§3) Fluorescence titrations of 7 with the set of octylglycosides (FIG. 15) in methanol were performed to study the effect of substitution of 4-methylquinoline instead of 4-cyanopyridine on the binding affinity and selectivity of Compound 12. […] The stoichiometry of binding between Compound 7 and n-octyl-α-D-glucopyranoside was determined by Job plot to be 1:1 (FIG. 12).

[3] = Fluorescence titration, octanol control; assay type: binding; details: 298° K
Method: as §1, §2, §3

[4] = 1D 1H NMR titration of receptor with octyl pyranoside; assay type: binding; details: n-octyl-β-D-glucopyranoside; CDCl3, 298° K; receptor 1 mM
Method: The binding affinity of Compound 11 to octyl pyranosides was tested using 1D ^1H NMR titrations in dry and deacidified CDCl3 at 298° K. The Compound 11 in fixed concentration (1 mM) was titrated with increasing amount of n-octyl-β-D-glucopyranoside and the change in the amide proton resonance of Compound 11 was monitored (FIG. 5A).

[5] = UV-Vis titration, octanol control; assay type: binding; details: 298° K
Method: as §1
(§4) To derive quantitative binding information, UV-Vis titrations were performed. The receptor at fixed concentration was titrated with the octylglycosides in dry and deacidified chloroform or methanol (298° K). Each titration was performed in duplicate to verify results.

[6] = UV-Vis titration of n-octyl monosaccharides with receptor; assay type: binding; details: for Ka in chloroform / Ka in methanol: 298° K
Method: as §1, §4

[7] = n-octyl β-D-galacto pyranoside, UV-Vis

N#Cc1ccncc1 [4-cyanopyridine, reference compound]
changes in carbohydrate hydroxyl chemical shifts on titration into the sugar [1]: no chemical shift changes were observed

c1cnc(C2CC(c3cnccn3)CC(c3cnccn3)C2)cn1 (stereo not drawn) [Compound 2, 2,2′,2″-cyclohexane-1,3,5-triyltripyrazine]
melting point: 122 to 124 °C

c1cc(C2CC(c3ccncn3)CC(c3ccncn3)C2)ncn1 (stereo not drawn) [Compound 3, 4,4′,4″-cyclohexane-1,3,5-triyltripyrimidine]
melting point: 126 to 128 °C

Cc1cc(C2CC(c3cc(C)c4ccccc4n3)CC(c3cc(C)c4ccccc4n3)C2)nc2ccccc12 (stereo not drawn) [Compound 7, 2,2,2″-cyclohexane-1,3,5-triyltri(4-methylquinoline)]
Ka in methanol ([2]; n-octyl α-D-galacto pyranoside): 6,600 ± 200 M^−1 | Ka in methanol ([2]; n-octyl α-D-gluco pyranoside): 14,900±1700 M^−1 | Ka in methanol ([2]; n-octyl α-D-manno pyranoside): 2600 ± 200 M⁻¹ | Ka in methanol ([2]; n-octyl β-D-galacto pyranoside): 3,200 ± 80 M^−1 | Ka in methanol ([2]; n-octyl β-D-gluco pyranoside): 9,200 ± 600 M^−1 | Ka in methanol ([2]; n-octyl β-D-manno pyranoside): >400 M⁻¹ | Ka in methanol [3]: (no binding)

Cc1cccc(NC(=O)[C@H]2C[C@@H](C(=O)Nc3cccc(C)n3)C[C@@H](C(=O)Nc3cccc(C)n3)C2)n1 [Compound 11, cis-cyclohexane-1,3,5-tricarboxylic acid tris-[(6-methyl-pyridin-2-yl)-amide]]
Ka (measured affinity, NMR titration) [4]: 91 M⁻¹

N#Cc1ccnc(C2CC(c3cc(C#N)ccn3)CC(c3cc(C#N)ccn3)C2)c1 (stereo not drawn) [Compound 12, 2,2′,2″-cyclohexane-1,3,5-triyltri(4-cyanopyridinyl)]
Ka in chloroform [5]: No binding; also recorded: (no binding) | affinity for n-octyl-β-D-galactopyranoside relative to the β-D-glucopyranoside ([6]; UV-Vis titration): roughly half | Ka in chloroform ([6]; n-octyl α-D-galacto pyranoside): 17,600 ± 100 M^−1 | Ka in methanol ([6]; n-octyl α-D-galacto pyranoside): 9,200 ± 1,100 M^−1 | Ka in chloroform ([6]; n-octyl α-D-gluco pyranoside): 183,000±4,200 M^−1 | Ka in methanol ([6]; n-octyl α-D-gluco pyranoside): 52,000 ± 2,700 M^−1 | Ka in chloroform ([6]; n-octyl α-D-manno pyranoside): 6,700 ± 700 M^−1 | Ka in methanol ([6]; n-octyl α-D-manno pyranoside): >1,200 M^−1 | Ka in chloroform [6, 7]: 9,800 ± 100 M^−1 | Ka in methanol [6, 7]: 7,200 ± 1,700 M^−1 | Ka in chloroform ([6]; n-octyl β-D-gluco pyranoside): 25,000 ± 600 M^−1 | Ka in methanol ([6]; n-octyl β-D-gluco pyranoside): 11,100 ± 600 M^−1 | Ka in chloroform ([6]; n-octyl β-D-manno pyranoside): did not reach saturation up to the limit of the titration; also recorded: (not saturable) | Ka in methanol ([6]; n-octyl β-D-manno pyranoside): (not saturable) | changes in carbohydrate hydroxyl chemical shifts on titration into the sugar [1]: clearly visible

N#Cc1ccnc(C2CC(c3cc(C#N)ccn3)CC(c3cnccc3C#N)C2)c1 (stereo not drawn) [Compound 14, 2,2′,3′-cyclohexane-1,3,5-triyltri(4-cyanopyridinyl)]
Ka in chloroform ([6]; n-octyl α-D-gluco pyranoside): no affinity

— US8716472B2, “Tripodal cyclohexane derivatives and their use as carbohydrate receptors” (University of Rochester, priority 2006, dated 2014)
